Peptide text beside a SMILES is read from it. * marks the point of attachment. Cbz = O=C(OCc1ccccc1)*
Columns and labels:
Assay type in all cases: cell-based, human
melanoma cell lines = assay: Proteasome inhibitors, apoptosis of melanoma cell lines (Annexin V FITC flow cytometry); settings: RJ002L, MG012, C8161, MUM2B, SK-MeI-28; 1-10 μM; 24 hrs
Description: (§1) The proteasome inhibitors lactacystin, MG-132, and bortezomib were evaluated for the ability to induce apoptosis in malignant melanoma cell lines (n=3) including an early passage line, RJ002L. MG-132 was obtained from Calbiochem (La Jolla, Calif.) and dissolved in DMSO. Lactacystin was purchased from Sigma Chemical Co. (St. Louis, Mo.) and dissolved in PBS. Bortezomib was obtained from a pharmacy as VELCADE (bortezomib) for Injection from a single use vial for intravenous use only (Millennium Pharmaceuticals, Cambridge, Mass.). A cell line with wild-type p53 (RJ002L) and two melanoma cell lines with mutant p53 alleles (C8161 and MUM2B) were included in this study. Two additional melanoma cell lines were also used: cutaneous SK-MeI-28 cells and primary, early passage MG012 cells. In addition, five normal melanocyte culture cell lines (MC-005, MC-006, MC-008, MC-009 and MC-011) were examined. Prior to testing, the melanoma cell lines were maintained in RPMI supplemented with 10% FBS. Normal human melanocytes were isolated from neonatal foreskins as previously described (Qin J et al., 2004, Mol Cancer Ther 3:895-902, 2004) and cultured with medium 154 containing growth supplements (Cascade Biologics, Portland, Oreg.).
To assess the effect of proteasome inhibitors on the cell lines, the cells were grown in suitable culture media as described above. Highly proliferating cells (i.e., cells that had reached approximately 30% confluency) were exposed to the inhibitors as described below. The culture media was replenished with media containing proteasome inhibitors at various concentrations and the cells were incubated for 24 hours prior to harvesting the cells for further analysis.
(§2) Following treatment with the proteasome inhibitors, the melanoma and melanocyte cell cultures were assayed for apoptotic cells using the APO TARGET Annexin V FITC staining kit (Biosource, Camarillo, Calif.) according to the manufacturer's instructions followed by flow cytometric analysis using FACScaliber (Becton Dickinson, Palo Alto, Calif.) as described in Qin, J. et al., 2001, Nat Med 7: 385-386. In some cases, cell cycle and apoptosis analysis was measured using propidium iodide staining and flow cytometry as described. Cells with DNA content less than the G0 amount of untreated cells were considered apoptotic. For cell analysis, DNA histograms were analyzed using MultiCycle for Windows (Phoenix Flow Systems, San Diego, Calif.) as described in Denning, M. F. et al., 1998, J Biol Chem 273: 29995-30002.

normal melanocytes = assay: Proteasome inhibitors, apoptosis of normal melanocyte cultures (Annexin V FITC flow cytometry); settings: MC-005, MC-006, MC-008; 24 hrs; 1, 5 or 10 μM
Description: as §1
To assess the effect of proteasome inhibitors on the cell lines, the cells were grown in suitable culture media as described above. […]
as §2, with “Cells with DNA content less than the G0 amount of untreated cells were considered apoptotic.” left out

NOXA [1] = assay: Western blot of NOXA after proteasome inhibitors in normal melanocytes; settings: MC-004, MC-005, MC-006, MC-008; 1 μM or 10 μM; 18 hrs
Text: (§3) A panel of melanoma cells were used to assess the effect of bortezomib on pro-apoptotic proteins. RJ002L, C8161, MUM2B and SK-MeI-28 melanoma cells, as well as two normal melanocyte cultures (MC-010 and MC-012) were examined. Prior to testing, the RJ002L melanoma cell lines were maintained in RPMI supplemented with 10% FBS. Late passage melanoma cell lines (C8161, MUM2B and SK-Me1028) were utilized as previously described (Welch D et al., 1991, Int J Cancer 47:227-237; Bittner M et al., 2000, Nature 406:536-540). Normal human melanocytes were isolated from neonatal foreskins and cultured as previously described (Qin J et al., 2004, Mol Cancer Ther 3:895-902). Proliferating cells were examined by Western blot analysis before and after 18 hrs of exposure to bortezomib (1 μM). Antibodies were obtained as follows: Bad (SC-8044), Bcl-2 (SC-7382), Bcl-xL (SC-634), Mcl-1 (SC-819), Bak (SC-832) from Santa Cruz Biotechnology (Santa Cruz, Calif.); NOXA (OP180) from Calbiochem; Bid, Bim and PUMA from Cell Signaling (Beverly, Mass.); BAX from Upstate (Charlottesville, Va.); and β-actin from ICN (Irvine, Calif.). For the Western blot analysis, whole cell extracts were prepared as previously described (Denning M et al., 1998, J Biol Chem 273:29995-30002). Briefly, cells were harvested by scraping monolayers and washed with PBS. Cell pellets were resuspended in CHAPS buffers containing a protease inhibitor cocktail. Extracts were vigorously shaken at 4° C. for 15 min followed by centrifugation. Supernatants were collected and protein concentration determined using Bio-Rad reagent. Thirty to 50 microgram protein samples were resolved by SDS-polyacrylamide gel electrophoresis and transferred to polyvinylidene difluoride membrane by electroblotting. Membranes were probed with the various primary antibodies overnight at 4° C., followed by detection using ECL reagents (Amersham Pharmacia Biotech, Piscataway, N.J.) according to manufacturer's instructions.
(§4) Two other proteasome inhibitors, lactasytsin and MG-132, were tested for the ability to induce NOXA in melanoma cells and melanocytes. […]

NOXA [2] = assay: Western blot of NOXA after proteasome inhibitors in melanoma cells; settings: RJ002L, C8161, MUM2B; 1 μM or 10 μM; 18 hrs
Text: as §3, §4

[3] = test system: MDA-MB231 breast cancer cells; assay: Cytotoxicity and growth assay in MDA-MB231 breast cancer cells (SRB, TCA-precipitated protein); settings: MDA-MB231; up to 3 days
Description: An invasive, estrogen-independent breast cancer cell line that spontaneously expresses high levels of Notch-1 and -4, MDA-MB231, and normal human breast cells were used to investigate whether inhibition of Notch activation or expression affects the biological behavior of breast cancer cells. Human Mammary Epithelial Cells (HMEC) were purchased from Clonetics and cultured in mammary epithelial cell basal medium (MEBM) supplemented with 52 μg/ml Bovine Pituitary Extract […], […] human recombinant Epidermal Growth Factor (hEGF), 5 μg/ml insulin, 0.5 μg/ml Hydrocortisone, 50 μg/ml Gentamicin and 50 μg/ml Amphotericin-B. MDA-MB231 (ATCC, Rockville, Md.) were cultured in DMEM medium with 10% FBS. Notch expression in HMEC and MDA-MB231 cells was silenced using highly specific RNAi. Double-stranded synthetic 21-mer RNA oligonucleotides (siRNAs) were purchased from Dharmacon (Lafayette, Colo.). […] Sequence specificity was determined by BLAST searches which determined the uniqueness of the sequences. Transfection of siRNAs was performed using Oligofectamine (Invitrogen) as recommended by the siRNA manufacturer (Dharmacon). Transfection efficiency was optimized and followed on parallel wells using DNA double stranded oligos of identical sequence to the siRNAs, labeled with biotin on one strand. Transfected cells were identified by Streptavidin-horseradish peroxidase staining (Vectastain) and counted. Transfection efficiencies around 80% were routinely obtained.
Cytotoxicity and growth of transfected cells were estimated by a standard assay used for cancer drug screening, through the total amount of TCA-precipitated cell proteins after drug treatment (Likhitwitayawuid, K et al., 1993, J Nat Prod 56:30-38): 200 μl of cell suspension (10^5 cells/ml) were added to each well in a 96-well plate. After incubation at, 37° C., in 5% CO2 (30 minutes to 72 hours depending on the time course chosen), 50 μl 50% trichloroacetic acid was added to each well. After incubation at 4° C. for 1 hour, precipitates were washed with water 4-5 times and air dried overnight. One hundred μl of SRB solution (0.4% sulforhodamine B in 1% acetic acid, filtered before use) was added to each well for 30 minutes. Wells were washed with 1% acetic acid 4-5 times and air dried. Two hundred μl 10 mM Tris base was added to each well. Plates were shaken for 5-10 minutes and OD at 490 nm (OD490) was recorded via ELISA reader. To assay matrix invasion, 300 μl of cell suspension (10^6 cells/mL in serum-free medium) were added to invasion inserts (BioCoat Matrigel Invasion Chambers, Becton Dickinson, Bedford, Mass.) and incubated for 22 hours at 37° C., 5% CO2. […] After removal of the non-invading cells from the interior of the inserts, stained invading cells were lysed in 10% acetic acid and OD595 was determined. […]

Notch-1 = assay: Notch Western blot in MDA-MB231 cells; settings: MDA-MB231; 25 μM; 48 hours
Description: Notch silencing was confirmed by Western blot using commercial goat polyclonal antibodies from Santa Cruz Biotechnology to Notch-1 (C-20, Cat# sc-6014 S) and Notch-4 (C-19, Cat# sc-8644). Total cell lysates were prepared as follows: cells grown on 6 cm dishes were scraped in lysis buffer containing 1×PBS, 1% Nonidet P40, 0.5% deoxycholate, 0.1% SDS, freshly added aprotinin (45 μg/ml), phenylmethylsulfonyl fluoride (10 μg/ml), and sodium orthovanadate (10 μM). Lysates were sonicated 4 times for 5 seconds each, followed by 30 minutes incubation on ice. Lysates were centrifuged at 10,000 g for 20 minutes at 4° C. Supernatants were used as total cell lysates. Nuclear extracts were prepared as follows: 10,000,000 cells were pelleted, washed, and quickly frozen in a dry ice bath. Pellets were thawed by adding 100 μl of buffer 1 (10 mM HEPES, pH 7.9, 10 mM KCl, 1.5 mM MgCl2, 1 mM DTT). Nuclei were pelleted and lysed in 15 μl Buffer 2 (20 mM HEPES, pH7.9, 0.4 M NaCl, 1.5 mM MgCl2, 25% glycerol, 0.2 mM EDTA, 1 mM DTT, and 0.5 mM PMSF). Lysates were diluted in 50-70 μl Buffer 3 (20 mM HEPES, pH 7.9, 50 mM KCl, 20% glycerol, 0.2 mM EDTA, 1 mM DTT, 0.5 mM PMSF). Protein concentrations were estimated using the BCA protein assay (Pierce). Supernatants were boiled in reducing SDS sample buffer (Novex). Twenty μg protein per lane were run on a 3-8% Tris acetate gel (Invitrogen) in Tris Acetate Reducing Running Buffer (Novex). Protein bands were transferred onto PVDF membranes (BioRad) using transfer buffer (Novex). Membranes were then blocked overnight at 4° C. in 2% blocking solution in TBS (Roche). Primary antibodies were diluted in 2% Boehringer blocking solution (total volume 5 ml). Membranes were incubated for one hour at room temperature with shaking, then washed 6 times for 10 minutes each in TBS wash buffer. Membranes were incubated in secondary antibody in 2% of blocking solution for 30 minutes, then washed 6 times for 10 minutes each at RT in wash buffer. Bands were detected with chemiluminescent reagent (Roche) according to the manufacturer's directions. […]

[4] = test system: MDA-MB231 breast cancer cells; assay: Extracellular matrix invasion of MDA-MB231 cells (Matrigel Invasion Chambers); settings: 25 μM, 22 h
Description: Cytotoxicity and growth of transfected cells were estimated by a standard assay used for cancer drug screening, through the total amount of TCA-precipitated cell proteins after drug treatment (Likhitwitayawuid, K et al., 1993, J Nat Prod 56:30-38): 200 μl of cell suspension (10^5 cells/ml) were added to each well in a 96-well plate. After incubation at, 37° C., in 5% CO2 (30 minutes to 72 hours depending on the time course chosen), 50 μl 50% trichloroacetic acid was added to each well. After incubation at 4° C. for 1 hour, precipitates were washed with water 4-5 times and air dried overnight. One hundred μl of SRB solution (0.4% sulforhodamine B in 1% acetic acid, filtered before use) was added to each well for 30 minutes. Wells were washed with 1% acetic acid 4-5 times and air dried. Two hundred μl 10 mM Tris base was added to each well. Plates were shaken for 5-10 minutes and OD at 490 nm (OD490) was recorded via ELISA reader. To assay matrix invasion, 300 μl of cell suspension (10^6 cells/mL in serum-free medium) were added to invasion inserts (BioCoat Matrigel Invasion Chambers, Becton Dickinson, Bedford, Mass.) and incubated for 22 hours at 37° C., 5% CO2. Cells were stained with 0.9% crystal violet in 10% ethanol for 20 minutes. Inserts were dipped in water several times and air dried. After removal of the non-invading cells from the interior of the inserts, stained invading cells were lysed in 10% acetic acid and OD595 was determined.
Notch silencing was confirmed by Western blot as described above in Example 15 using commercial goat polyclonal antibodies from Santa Cruz Biotechnology to Notch-1 (C-20, Cat# sc-6014 S). For the Western blot analyses, MDA-MB231 cells were treated with 25 μM IL-X for 48 h or with 0.5, 1 or 2 μM z-Leu-Leu-Nle-CHO for 24 h. Cytotoxicity and matrix invasion assays were performed as described above in Example 15. For the cytotoxicity assays, MDA-MB231 cells were treated with […] IL-X for up to 3 days or with 0-20 μM z-Leu-Leu-Nle-CHO for up to 4 days. […]

SMILES | apoptotic response to increasing concentrations (melanoma cell lines) | cells undergoing apoptosis (normal melanocytes) | NOXA induction (NOXA [1]) | NOXA induction (NOXA [2]) | concentration above which cytotoxic [3] | molecular forms of Notch-1 (Notch-1) | in vitro matrix invasion [4]
CC(=O)N[C@@H](CSC(=O)[C@]1([C@@H](O)C(C)C)NC(=O)[C@H](C)[C@@H]1O)C(=O)O [lactacystin] | significantly enhanced apoptotic responses | no more than 10% | no induction of NOXA in any of the normal melanocytes | induced high NOXA levels |  |  | 
CCC(C)C(NC(=O)OCc1ccccc1)C(=O)NC(C=O)CC(C)C (stereo not drawn) [IL-X, cbz-IL-CHO] (Cbz-Ile-Leu-aldehyde; configuration not given here) |  |  |  |  | above 100 μM | apparent reduction in all molecular forms of Notch-1 | significantly reduced in vitro matrix invasion

From patent US20080220416A1, “Compositions for Inhibiting Cell Growth and Inducing Apoptosis in Cancer Cells and Methods of Use Thereof” (THE BOARD OF TRUSTEES OF THE UNIVERSITY OF ILLINOI, priority 2004, published 2008)
